Data taken from patent US6066642A, “Dihydropyridine-, pyridine-, benzopyran-4-one- and triazoloquinazoline derivative, their preparation and their use as adenosine receptor antagonists” (priority 1998, dated 2000).

Assays:
[1] = tested on: A3 specific binding; experiment: A3 specific binding after blocking A1 and A2 specific binding sites with a xanthine amino congener; conditions: A1 and A2 sites blocked with xanthine amino congener
Excerpt: Adenosine receptors have been implicated in the bronchoconstriction (BC) in allergic asthma.

[2] = tested on: HL-60 cells; experiment: apoptosis by flow cytometric DNA analysis, HL-60 cells; type: cell-based
Protocol: DNA content analysis by flow cytometry:
(§8) Cells were fixed by adding ~10^7 cells suspended in 1 ml of PBS of 1 ml 80% ethanol at -20° C. and stored for 48-120 hrs. After the cells were washed twice with PBS, the cells were stained with 20 mg/ml chromomycin A3 dissolved in PBS containing 2 mM MgCl2 by incubation in subdued light (30 min; 4° C.). The cells were then analyzed using a FACScan flow cytometer (Becton Dickinson, Mountain View, Calif.).

[3] = tested on: U-937 cells; experiment: apoptosis by flow cytometric DNA analysis, U-937 cells; type: cell-based
Protocol: DNA content analysis by flow cytometry:
as §8

[4] = tested on: HL-60 cells; experiment: live cell counting with trypan blue (cell death/proliferation), HL-60 cells; type: cell-based
Protocol: (§1) The HL-60 cells were maintained in RPMI 1640 supplmented with 10% fetal calf serum, 100 units/ml penicillin, […] streptomycin and 2 mM L-glutamine. The cells were split every third day, and 2 days before each experiment cultures were diluted to 2×10^5 cells/ml. For analysis of DNA content, aliquots of 2 ml were placed into 12-well flat-bottomed plates (Costar, Cambridge, Mass., U.S.A.) containing 2~6 μl test-compound solutions at defined concentrations or 6 μl DMSO (diluting medium). Live cell counting was carried out using 0.1% trypan blue.
(§2) In the latter assay, cell death was studied in HL-60 cells (FIGS. 11A-B) and in U-937 cells (FIGS. 11C-D) over a time course of 9 days. Cells in culture receiving no drug treatment proliferated geometrically until nearly the end of the experiment.

[5] = tested on: U-937 cells; experiment: live cell counting with trypan blue (cell death/proliferation), U-937 cells; type: cell-based
Protocol: as §1, §2

[6] = tested on: HL-60 cells; experiment: in situ end-labeling of fragmented nuclear DNA (TUNEL), HL-60 cells; type: cell-based
Protocol: (§3) Cells were fixed by immersing slides in 4% methanol-free formaldehyde in PBS at pH 7.4, 4° C., for 25 min. Fixed cells were permeabilized in 0.2% Triton® X-100 in PBS at 4° C. for 5 min. After preincubation with […] Promega equilibration buffer for 10 min at room temperature, the cells were covered with 50 μl TdT incubation buffer and a coverslip and maintained at 37° C. for 60 min inside the dark humidified chamber to protect from dry and direct light. In order to stop the reaction, the coverslip was removed and the slides were immersed in 2×SSC for 15 min at room temperature. The cells were restained by propidium iodide 1 μg/ml in PBS for 15 min. After every step, the cells were rinsed 2-3 times with fresh PBS for 5 min each. Finally, the glass slides were sealed with nail polish. The slides were stored at 4° C. in the dark.
(§4) The evidence that DNA strand breaks, characteristic of apoptosis, are induced by the A3 antagonists was obtained using in situ end-labelingin-situ of fragmented nuclear DNA by terminal deoxynucleotidyl transferase (TUNEL method, Cooke, H., Trends in Biotech., 10, 23 (1992)), which incorporates a fluorescent label at the 3'-ends. […] In the control cultures and in those treated with 10 nM Cl-IB-MECA alone, spontaneous apoptosis occured in only 5-7% of the cells (Table 17). […] The reversal of antagonist-induced apoptosis by the agonist is similar to that observed for the growth curves, except that both agonist and antagonist were applied at lower concentrations.

[7] = tested on: U-937 cells; experiment: in situ end-labeling of fragmented nuclear DNA (TUNEL), U-937 cells; type: cell-based
Protocol: as §3, §4

[8] = tested on: bak protein in HL-60 cells; experiment: expression of apoptosis-inducing protein bak by immunofluorescence, HL-60 cells; type: cell-based
Protocol: (§5) Cells were fixed as following steps: 10 min with 1% formalin in PBS, 5 min with […] methanol and 2 min with ice cold acetone, then permebilized with 0.1% Nonidet P-40 for 20 min. After the preparation, the specimens were incubated step by step: 10% goat serum in PBS for 20 min, mouse monoclonal anti-bak antibody (5 μg/ml PBS-BSA) for 60 min, Rhodamine (TRITC)-conjugated AffiniPure Goat Anti-mouse IgG (H+L) in PBS-BSA for 60 min. The specimens were washed 3-5 times with PBS after every step. The glass slides were stored at 4° C. in the dark.
(§6) The mechanism of the apoptosis observed in response to either A3 agonists was investigated.

[9] = tested on: bak protein in U-937 cells; experiment: expression of apoptosis-inducing protein bak by immunofluorescence, U-937 cells; type: cell-based
Protocol: as §5, §6

[10] = tested on: bak in MCF7 breast adenocarcinoma cells; experiment: expression of bak, MCF7 cells; type: cell-based; conditions: 10 μM
Protocol: as §5
(§7) Various other cell lines were investigated for the expression of bak in response to the A3 agonist.

[11] = tested on: bak in 1321N astrocytoma cells; experiment: expression of bak, 1321N cells; type: cell-based; conditions: 10 μM
Protocol: as §5, §7

[12] = biological target: T1, A2a receptors (Rattus norvegicus, UniProt P30543); experiment: radioligand binding, displacement of specific [3H]CGS 21680 binding in rat striatal membranes; conditions: Table 11; 10^-4 M; read-out: displacement of specific binding rA2A
T1 construct: Displacement of specific [^3 H]; from tissue; host or cells: rat striatal membranes
T1 sequence (P30543 whole entry): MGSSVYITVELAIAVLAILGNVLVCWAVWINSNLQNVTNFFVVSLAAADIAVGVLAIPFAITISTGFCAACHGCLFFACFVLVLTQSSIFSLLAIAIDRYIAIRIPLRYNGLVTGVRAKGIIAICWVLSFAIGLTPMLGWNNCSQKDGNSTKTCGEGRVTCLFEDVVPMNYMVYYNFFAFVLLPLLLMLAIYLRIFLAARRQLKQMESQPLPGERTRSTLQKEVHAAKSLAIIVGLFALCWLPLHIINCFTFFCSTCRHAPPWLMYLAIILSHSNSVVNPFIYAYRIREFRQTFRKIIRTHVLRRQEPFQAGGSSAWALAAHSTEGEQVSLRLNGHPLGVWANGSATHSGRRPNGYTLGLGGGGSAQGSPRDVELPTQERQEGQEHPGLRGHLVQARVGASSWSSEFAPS
Protocol: ^b Displacement of specific [^3 H]
or as a percentage of specific binding displaced at 100 μM.

[13] = tested on: Female Mongolian gerbils; experiment: bilateral carotid occlusion (stroke) in gerbils, survival and intact neurons; type: in vivo, Mongolian gerbil; conditions: for survival rate after ischemia: 100 μg/kg 15 min after occlusion; for intact neurons: 100 μg/kg
Protocol: Control gerbils were injected with saline. The survival of the animals was followed as a function of time after ischemia.
The number of intact neurons was also counted.

[14] = tested on: rabbit lung; experiment: bronchoconstriction / dynamic compliance (Cdyn) in allergic rabbits; type: in vivo, New Zealand white rabbit; conditions: antagonist 10^-5 M, 2 minute aerosol, co-administered with agonist
Protocol: New Zealand white pasteurella free rabbit litter mates were exposed to A3 adenosine agonist APNEA, IB-MECA, or Cl-IB-MECA and the percent change in dynamic compliance (Cdyn) was measured as a function of the adenosine dose using known procedures. […] Allergy was induced in the rabbits using dust mites.
The antagonist was administered at a constant dose of 10^-5 M through a 2 minute aerosilization, followed by a 15 minute wait before the measurement of dynamic compliance.

[15] = sublethal concentrations incl. 10 nM
[16] = 10 nM Cl-IB-MECA with either antagonist
[17] = 10 nM alone, range covers both cell lines and controls
[18] = Table 17, Cl-IB-MECA 10 nM, 48 hour
[19] = antagonist 0.5 μM plus 0.01 or 1.0 μM Cl-IB-MECA
[20] = Table 17, antagonist 50 nM plus Cl-IB-MECA 10 nM, 48 hour
[21] = Table 17, antagonist 50 nM, 48 hour

Nc1ccc(CCNc2ncnc3c2ncn3[C@@H]2O[C@H](CO)[C@@H](O)[C@H]2O)cc1 [APNEA]
displacement of A3 specific binding [1]: A3 specific binding was displaced

CNC(=O)[C@H]1O[C@@H](n2cnc3c(NCc4cccc(I)c4)nc(Cl)nc32)[C@H](O)[C@@H]1O [Cl-IB-MECA, N^6-(3-iodobenzyl)-2-chloro-adenosine-5'-N-methyluronamide]
concentration at which plateau of apoptosis begins, HL-60 ([2]; 48 hours): approximately 10 μM | plateau in the percent of apoptotic cells, HL-60 ([2]; 48 hours): 30-50% | apoptosis in HL-60 cells ([2]; high concentrations (≥μM)): caused apoptosis | apoptosis at lower concentrations, HL-60 ([2]; ≤1 μM): did not significantly promote apoptosis | concentration at which plateau of apoptosis begins, U-937 ([3]; 48 hours): approximately 10 μM | plateau in the percent of apoptotic cells, U-937 ([3]; 48 hours): 30-50% | apoptosis in U-937 cells ([3]; high concentrations (≥μM)): A similar response was observed | apoptosis at lower concentrations, U-937 ([3]; ≤1 μM): did not significantly promote apoptosis | growth curve, HL-60 ([4]; 0.01 or 1.0 μM alone, 9 days): no deviation from this growth curve was observed | death of HL-60 cells in culture ([4]; 20 or 40 μM, after 4 days): > 90% | effect of agonist on impairment of proliferation by antagonist, HL-60 [4, 15]: reversed the impairment of cell proliferation | general cell death at lower concentrations, HL-60 ([4]; ≤1 μM, trypan blue): did not significantly promote | growth curve, U-937 ([5]; 0.01 or 1.0 μM alone, 9 days): no deviation from this growth curve was observed | effect of agonist on impairment of proliferation by antagonist, U-937 [5, 15]: reversed the impairment of cell proliferation | general cell death at lower concentrations, U-937 ([5]; ≤1 μM, trypan blue): did not significantly promote | coadministration with antagonist, apoptotic cells, HL-60 [6, 16]: suppressed the increase in apoptotic cells | apoptosis (TUNEL), Cl-IB-MECA alone, HL-60 [6, 17]: 5-7% | DNA fragmentation labeling (TUNEL), HL-60 ([6]; 30 μM): approximately 50% | Percentage of apoptotic cells, HL-60, Cl-IB-MECA alone [6, 18]: 7.1 Percentage | coadministration with antagonist, apoptotic cells, U-937 [7, 16]: suppressed the increase in apoptotic cells | apoptosis (TUNEL), Cl-IB-MECA alone, U-937 [7, 17]: 5-7% | DNA fragmentation labeling (TUNEL), U-937 ([7]; 30 μM): approximately 50% | Percentage of apoptotic cells, U937, Cl-IB-MECA alone [7, 18]: 5.6 Percentage | expression of bak, HL-60 ([8]; 30 μM): induced a significant level of expression of bak | expression of bak, HL-60 ([8]; ≤1 μM): not concentrations ≤1 μM | expression of bak, U-937 ([9]; 30 μM): induced a significant level of expression of bak | expression of bak, U-937 ([9]; ≤1 μM): not concentrations ≤1 μM | expression of bak, MCF7 [10]: found to induce the expression of bak | expression of bak, 1321N [11]: found to induce the expression of bak

CCOC(=O)C1=C(C)NC(c2ccccc2)=C(C(=O)OCc2ccccc2)C1C#Cc1ccccc1 (stereo not shown) [Compound 101]
inhibition at 100 µM [12]: < 10% | growth curve with A3 antagonist plus Cl-IB-MECA, HL-60 [4, 19]: the growth curves were nearly coincident with control curves | growth curve with A3 antagonist plus Cl-IB-MECA, U-937 [5, 19]: the growth curves were nearly coincident with control curves | fluorescent labeling of apoptotic cells, HL-60 ([6]; 50 nM, 24 h, approximately): 30-40% | Percentage of apoptotic cells, HL-60, + Cl-IB-MECA [6, 20]: 11.6 Percentage | Percentage of apoptotic cells, HL-60 [6, 21]: 39.7 Percentage | fluorescent labeling of apoptotic cells, U-937 ([7]; 50 nM, 24 h, approximately): 30-40% | Percentage of apoptotic cells, U937, + Cl-IB-MECA [7, 20]: 10.4 Percentage | Percentage of apoptotic cells, U937 [7, 21]: 27.3 Percentage | bak labeling, HL-60 ([8]; 24 hours): present | bak labeling, U-937 ([9]; 24 hours): present | survival rate after ischemia ([13]; after 7 days): 90% | survival rate after ischemia ([13]; after 90 days): 80% | intact neurons ([13]; after 7 days): 75% | intact neurons ([13]; after 90 days): 90% | percent change in dynamic compliance (Cdyn) [14]: much reduced
